Broadly, the IC50 is the concentration needed to halve the response being measured. Low values mean inhibition by little substance, high ones a need for much substance. In general, EC50 refers to the concentration needed to bring the measured effect to its halfway point.

Read-outs that look alike come from different tables or passages of the source.

Twelve compounds from US10399948B2, “Negative allosteric modulators of metabotropic glutamate receptor 3” (Vanderbilt University, priority 2015, dated 2019) can be followed below.

Common to all, as to format: cell-based
In one test the target is rat mGlu2 (Rattus norvegicus (Rat), UniProt P31421). The test is described as follows: mGlu2 Ca2+ flux assay. Particulars: NAM, glutamate EC80; >30,000 = no measurable activity. As to the method: (§1) Gα15 HEK293 cells stably expressing rat mGlu2 were plated in black-walled, clear-bottomed, poly-D-lysine coated 384-well plates in 20 μL of assay medium (DMEM containing 10% dialyzed FBS, 20 mM HEPES, and 1 mM sodium pyruvate) at a density of 12K cells/well. The cells were grown overnight at 37° C. in the presence of 5% CO2. The next day, medium was removed and the cells incubated with 20 μL of […] Fluo-4, AM prepared as a 2.3 mM stock in DMSO and mixed in a 1:1 ratio with 10% (w/v) pluronic acid F-127 and diluted in assay buffer (Hank's balanced salt solution, 20 mM HEPES, and 2.5 mM probenecid) for 45 minutes at 37° C. Dye was removed, 20 μL of assay buffer was added, and the plate was incubated for 5 minutes at room temperature.
Chain of rat mGlu2 (P31421 19-872): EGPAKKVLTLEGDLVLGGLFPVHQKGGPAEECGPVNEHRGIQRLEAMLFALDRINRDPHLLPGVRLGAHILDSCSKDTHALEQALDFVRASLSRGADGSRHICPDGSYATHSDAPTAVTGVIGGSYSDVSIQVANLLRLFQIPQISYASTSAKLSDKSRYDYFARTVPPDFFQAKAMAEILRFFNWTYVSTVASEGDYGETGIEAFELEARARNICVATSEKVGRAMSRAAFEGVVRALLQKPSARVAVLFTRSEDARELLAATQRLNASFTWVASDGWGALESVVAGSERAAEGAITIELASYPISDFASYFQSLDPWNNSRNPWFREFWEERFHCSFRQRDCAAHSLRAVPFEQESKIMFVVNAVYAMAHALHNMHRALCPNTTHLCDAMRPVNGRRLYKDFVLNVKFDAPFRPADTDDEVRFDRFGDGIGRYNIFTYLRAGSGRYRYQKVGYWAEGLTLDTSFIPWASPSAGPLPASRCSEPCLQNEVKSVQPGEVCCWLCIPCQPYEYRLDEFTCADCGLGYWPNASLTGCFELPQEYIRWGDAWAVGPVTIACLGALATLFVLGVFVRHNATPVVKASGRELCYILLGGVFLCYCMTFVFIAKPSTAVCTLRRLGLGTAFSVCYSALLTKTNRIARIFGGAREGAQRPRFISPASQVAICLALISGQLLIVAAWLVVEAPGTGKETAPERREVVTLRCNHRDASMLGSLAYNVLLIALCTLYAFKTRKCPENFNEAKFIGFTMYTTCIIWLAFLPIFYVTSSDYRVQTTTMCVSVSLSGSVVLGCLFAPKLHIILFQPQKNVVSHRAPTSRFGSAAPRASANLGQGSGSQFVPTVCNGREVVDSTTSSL
(§2) Ca^2+ flux was measured using the Functional Drug Screening System (FDSS7000, Hamamatsu, Japan). After establishment of a fluorescence baseline for about 3 seconds, the compounds of the present invention were added to the cells, and the response in cells was measured. 2.3 minutes later an EC20 concentration of the mGlu2 receptor agonist glutamate was added to the cells, and the response of the cells was measured for 1.9 minutes; an EC80 concentration of agonist was added and readings taken for an additional 1.7 minutes. All test compounds were dissolved and diluted to a concentration of 10 mM in 100% DMSO. Compounds were then serially diluted 1:3 in DMSO into 10 point concentration response curves, transferred to daughter plates, and further diluted into assay buffer to a 2× stock. Calcium fluorescence measures were recorded as fold over basal fluorescence; raw data was then normalized to the maximal response to glutamate.
(§3) The raw data file containing all time points was used as the data source in the analysis template. This was saved by the FDSS as a tab-delimited text file. Data were normalized using a static ratio function (F/F0) for each measurement of the total 360 values per well divided by each well's initial value. Data were then reduced to peak amplitudes (Max−Initial Min) using a time range that starts approximately 3 seconds prior to the glutamate EC80 addition and continues for approximately 90 seconds. This is sufficient time to capture the peak amplitude of the cellular calcium response. Individual amplitudes were expressed as % ECMax by multiplying each amplitude by 100 and then dividing the product by the mean of the amplitudes derived from the glutamate ECMax-treated wells. IC50 values for test compounds were generated by fitting the normalized values versus the log of the test compound concentration (in mol/L) using a 4 parameter logistic equation where none of the parameters were fixed. Each of the three values collected at each concentration of test compound were weighted evenly.
For orientation: Calcium flux is commonly read through the fluorescence of an indicator in the cells.

The next test deals with rat mGlu5 (Rattus norvegicus (Rat), UniProt P31424). Description: mGlu5 Ca2+ flux assay. Particulars: for activity at 30 µM: read-out: rat mGlu5 Glu max (%). The method, then: as §1, with “HEK 293A cells stably” for “Gα15 HEK293 cells stably”, “expressing rat mGlu5 were plated” for “expressing rat mGlu2 were plated”, “mM HEPES, 100 units/mL penicillin/streptomycin plus 250 ng/mL Fungizone, and 1” for “mM HEPES, and 1”, “density of 20K cells/well. The” for “density of 12K cells/well. The”
Chain of rat mGlu5 (P31424 21-1203): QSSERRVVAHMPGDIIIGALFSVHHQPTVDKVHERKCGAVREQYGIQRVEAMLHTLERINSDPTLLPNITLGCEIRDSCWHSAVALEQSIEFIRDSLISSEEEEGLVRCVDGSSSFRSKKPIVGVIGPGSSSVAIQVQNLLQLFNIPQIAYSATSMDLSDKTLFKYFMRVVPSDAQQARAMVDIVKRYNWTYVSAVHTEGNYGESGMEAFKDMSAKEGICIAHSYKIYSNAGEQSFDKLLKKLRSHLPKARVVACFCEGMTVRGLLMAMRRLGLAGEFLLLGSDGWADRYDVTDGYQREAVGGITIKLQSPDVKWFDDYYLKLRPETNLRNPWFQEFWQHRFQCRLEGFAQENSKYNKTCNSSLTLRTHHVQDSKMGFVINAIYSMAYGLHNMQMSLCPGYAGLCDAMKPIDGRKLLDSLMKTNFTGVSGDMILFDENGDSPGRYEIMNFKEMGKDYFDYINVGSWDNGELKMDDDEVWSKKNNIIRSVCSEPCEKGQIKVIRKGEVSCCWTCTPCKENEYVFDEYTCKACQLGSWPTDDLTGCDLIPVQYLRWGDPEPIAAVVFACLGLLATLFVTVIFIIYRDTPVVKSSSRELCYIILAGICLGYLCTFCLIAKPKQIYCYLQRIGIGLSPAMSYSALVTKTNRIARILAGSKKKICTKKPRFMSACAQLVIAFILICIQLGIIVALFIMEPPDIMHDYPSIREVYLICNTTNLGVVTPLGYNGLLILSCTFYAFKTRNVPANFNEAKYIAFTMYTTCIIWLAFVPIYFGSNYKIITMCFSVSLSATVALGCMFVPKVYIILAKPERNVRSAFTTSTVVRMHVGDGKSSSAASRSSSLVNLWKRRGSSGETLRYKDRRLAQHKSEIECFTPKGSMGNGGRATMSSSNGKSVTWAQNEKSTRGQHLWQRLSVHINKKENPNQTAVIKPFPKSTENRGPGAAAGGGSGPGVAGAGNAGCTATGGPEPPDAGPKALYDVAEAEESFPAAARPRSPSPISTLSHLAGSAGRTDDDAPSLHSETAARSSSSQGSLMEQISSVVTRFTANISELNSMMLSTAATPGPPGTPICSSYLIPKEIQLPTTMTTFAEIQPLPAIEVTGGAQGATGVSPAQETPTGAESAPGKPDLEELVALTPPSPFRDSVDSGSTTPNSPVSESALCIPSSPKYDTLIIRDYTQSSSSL
as §2, with “mGlu5” for “mGlu2”
as §3, with “glutamate EC20/EC80” for “glutamate EC80”, “approximately 90-120” for “approximately 90”, “% EMax” for “% ECMax”, “wells. EC50” for “wells. IC50”

Another test deals with rat mGlu3 (Rattus norvegicus (Rat), UniProt P31422). Description: mGlu3 Ca2+ flux assay. Particulars: for IC50: NAM, glutamate EC80, >10,000 = decrease without plateau, >30,000 = no measurable activity; for remaining activity at 30 µM: read-out: rat mGlu3 Glu max (%). The method, then: Gα15/TREx cells stably expressing rat mGlu3 were plated in black-walled, clear-bottomed, poly-D-lysine coated 384-well plates in 20 μL of assay medium (DMEM containing 10% dialyzed FBS, 20 mM HEPES, 25 ng/mL tetracycline, 100 units/mL penicillin/streptomycin plus 250 ng/mL Fungizone, and 1 mM sodium pyruvate) at a density of 15K cells/well. The cells were grown overnight at 37° C. in the presence of 5% CO2. […] Dye was removed, 20 μL of assay buffer was added, and the plate was incubated for 10 minutes at room temperature.
Chain of rat mGlu3 (P31422 23-879): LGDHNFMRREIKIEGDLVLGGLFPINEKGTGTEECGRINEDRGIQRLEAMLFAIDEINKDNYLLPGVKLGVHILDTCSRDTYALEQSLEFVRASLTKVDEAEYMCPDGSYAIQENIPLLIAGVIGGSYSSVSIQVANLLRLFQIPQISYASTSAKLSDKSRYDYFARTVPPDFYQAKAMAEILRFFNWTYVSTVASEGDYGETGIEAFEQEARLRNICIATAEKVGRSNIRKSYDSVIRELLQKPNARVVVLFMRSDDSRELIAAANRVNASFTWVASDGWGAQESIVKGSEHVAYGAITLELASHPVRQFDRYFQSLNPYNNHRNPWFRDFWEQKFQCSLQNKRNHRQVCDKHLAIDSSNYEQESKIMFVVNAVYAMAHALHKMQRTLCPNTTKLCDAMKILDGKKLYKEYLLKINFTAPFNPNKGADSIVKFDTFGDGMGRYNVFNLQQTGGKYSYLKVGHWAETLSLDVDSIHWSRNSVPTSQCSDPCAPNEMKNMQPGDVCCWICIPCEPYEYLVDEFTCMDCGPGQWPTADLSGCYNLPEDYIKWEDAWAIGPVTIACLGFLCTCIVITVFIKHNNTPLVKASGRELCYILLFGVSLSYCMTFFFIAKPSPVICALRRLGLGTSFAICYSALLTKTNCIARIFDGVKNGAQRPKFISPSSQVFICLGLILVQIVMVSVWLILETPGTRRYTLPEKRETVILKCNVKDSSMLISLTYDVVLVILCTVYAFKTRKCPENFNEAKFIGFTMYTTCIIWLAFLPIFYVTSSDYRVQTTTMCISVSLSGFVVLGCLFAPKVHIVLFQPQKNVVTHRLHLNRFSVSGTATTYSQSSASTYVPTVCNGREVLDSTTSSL
as §2, with “mGlu3” for “mGlu2”
as §3, with “% EMax” for “% ECMax”, “wells. EC50” for “wells. IC50”

Setting [1] is: PAM, glutamate EC20, >10,000 = no plateau, >30,000 = no measurable activity, read-out: rat mGlu5 EC50 or IC50.
[2] abbreviates: response at 30 μM test compound as percentage of maximal response to glutamate.
Setting [3] is: PAM, response at 30 μM test compound as percentage of maximal response to glutamate.

As for `CC(COc1ccn(-c2ccc(F)cc2)c(=O)c1)Oc1ccccc1` (centres unmarked) [Compound 1, 1-(4-Fluorophenyl)-4-(2-phenoxypropoxy)pyridin-2(1H)-one], the IC50 at rat mGlu2 was above 30000 nM; against rat mGlu3, 728 nM. The EC50 on rat mGlu5 (setting [1]) is above 30000 nM. Besides, the remaining activity at 30 µM at rat mGlu3 (setting [2]) was found to be 0.69%.
In the case of `CC(COc1ccccc1)Oc1ccn(-c2ccc(F)cc2)c(=O)c1` (centres unmarked) [Compound 5, 1-(4-fluorophenyl)-4-((1-phenoxypropan-2-yl)oxy)pyridin-2(1H)-one], the IC50 at rat mGlu2 is above 30000 nM; on rat mGlu3, 1160 nM. Besides, the EC50 on rat mGlu5 (setting [1]) was above 10000 nM. Besides, the activity at 30 µM on rat mGlu5 (setting [3]) came to 42.5%. Also, the remaining activity at 30 µM at rat mGlu3 (setting [2]) was found to be 1.6%.
In the same order, the values of `O=c1nc(OCCOc2ccccc2)ccn1-c1cccc(F)c1` [Compound 14, 1-(3-fluorophenyl)-4-(2-phenoxyethoxy)pyrimidin-2(1H)-one] are above 30000 nM, 296 nM, 3540 nM, 77.5% and 1.61%.
In the same order, the values of `O=c1nc(OCCOc2ccccc2)ccn1-c1ccc(F)c(F)c1` [Compound 15, 1-(3,4-difluorophenyl)-4-(2-phenoxyethoxy)pyrimidin-2(1H)-one] are above 30000 nM, 219 nM, 427 nM, 83% and 2.44%.
As to `O=c1nc(OCCOc2ccccc2)ccn1-c1ccc(F)cc1` [Compound 17, 1-(4-Fluorophenyl)-4-(2-phenoxyethoxy)pyrimidin-2(1H)-one], the values for the IC50 at rat mGlu2 and against rat mGlu3 were above 30000 nM and 211 nM, respectively. Besides, the EC50 on rat mGlu5 (setting [1]) came to 1190 nM. Also, the activity at 30 µM on rat mGlu5 (setting [3]) turned out to be 96.8%. Moreover, on rat mGlu3 (setting [2]), the remaining activity at 30 µM amounted to 1.84%.
For the compound `O=c1cc(OCCOc2ccccc2)ccn1-c1ccc(F)cc1` [Compound 18, 1-(4-Fluorophenyl)-4-(2-phenoxyethoxy)pyridin-2(1H)-one], the 50% inhibitory concentration (IC50) against rat mGlu2 is above 30000 nM; against rat mGlu3, 725 ± 227 nM. The half-maximal effective concentration (EC50) at rat mGlu5 was 567 nM. The activity at 30 µM at rat mGlu5 (setting [3]) was 97.3%. Further, the remaining activity at 30 µM at rat mGlu3 (setting [2]) was 1.45 ± 0.14%.
In the same order, the values of `O=c1cc(OCCOc2ccccc2)ccn1-c1cccc(F)c1` [Compound 19, 1-(3-fluorophenyl)-4-(2-phenoxyethoxy)pyridin-2(1H)-one] are above 30000 nM, 434 nM, 1970 nM, 88% and 2.01%.
For `O=c1cc(OCCOc2ccccc2)ccn1-c1ccc(F)c(F)c1` [Compound 20, 1-(3,4-difluorophenyl)-4-(2-phenoxyethoxy)pyridin-2(1H)-one], the IC50 on rat mGlu2 was above 30000 nM; against rat mGlu3, 323 nM. Further, a half-maximal effect at rat mGlu5 (EC50) was put at 344 nM. Further, the activity at 30 µM on rat mGlu5 (setting [3]) was determined as 91%. Further, the remaining activity at 30 µM at rat mGlu3 (setting [2]) amounted to 1.63%.
On to `O=c1cc(OCCOc2ccccc2)ccn1-c1cc(F)cc(F)c1` [Compound 21, 1-(3,5-difluorophenyl)-4-(2-phenoxyethoxy)pyridin-2(1H)-one], for which the concentration giving a half-maximal response (EC50) on rat mGlu5 (setting [1]) was 818 nM. For the same compound, at rat mGlu5, the activity at 30 µM came to 28.3%. In addition, at rat mGlu3, the midpoint of inhibition, the IC50, lay at 799 nM and the remaining activity at 30 µM turned out to be 7.25%.
On to `N#Cc1cccc(-n2ccc(OCCOc3ccccc3)cc2=O)c1` [Compound 22, 3-(2-oxo-4-(2-phenoxyethoxy)pyridin-1(2H)-yl)benzonitrile], for which the IC50 on rat mGlu2 is above 30000 nM; against rat mGlu3 it was 559 nM. Also, the EC50 at rat mGlu5 (setting [1]) amounted to 6020 nM. Also, the activity at 30 µM on rat mGlu5 (setting [3]) worked out at 87%. Also, the remaining activity at 30 µM at rat mGlu3 (setting [2]) was found to be 1.16%.
In the same order, the values of `N#Cc1cc(F)cc(-n2ccc(OCCOc3ccccc3)cc2=O)c1` [Compound 23, 3-fluoro-5-(2-oxo-4-(2-phenoxyethoxy)pyridin-1(2H)-yl)benzonitrile] are above 30000 nM, 522 nM, 1310 nM, 26.8% and 3.44%.
For the compound `N#Cc1cccc(OCCOc2ccn(-c3ccc(F)cc3)c(=O)c2)n1` [Compound 59, 6-(2-((1-(4-fluorophenyl)-2-oxo-1,2-dihydropyridin-4-yl)oxy)ethoxy)picolinonitrile], the half-maximal inhibitory concentration (IC50) at rat mGlu2 was above 30000 nM; against rat mGlu3, above 10000 nM. On rat mGlu3 (setting [2]), the remaining activity at 30 µM came to 35.9%.
